From PubChem BioAssay (NCI)
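Interpolation was linear, between the two tested concentrations surrounding the appropriate level; five concentrations were tested over 48 hours in 96-well plates. At the TGI there is no net growth.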

Columns and labels:
Assay in all cases: NCI-60 cell line screen, 48 h
RXF-631 renal = test system: RXF-631 renal
SR leukemia = test system: SR leukemia
HCC-2998 colon = test system: HCC-2998 colon
XF 498 CNS = test system: XF 498 CNS
CAKI-1 renal = test system: CAKI-1 renal
NCI-H460 lung = test system: NCI-H460 lung
M14 melanoma = test system: M14 melanoma
SW-620 colon = test system: SW-620 colon
786-0 renal = test system: 786-0 renal
U251 CNS = test system: U251 CNS
UO-31 renal = test system: UO-31 renal
OVCAR-8 ovarian = test system: OVCAR-8 ovarian
SF-295 CNS = test system: SF-295 CNS
LOX IMVI melanoma = test system: LOX IMVI melanoma
DMS 273 small cell lung = test system: DMS 273 small cell lung
KM12 colon = test system: KM12 colon
SNB-19 CNS = test system: SNB-19 CNS
SNB-78 CNS = test system: SNB-78 CNS
HT29 colon = test system: HT29 colon
K-562 leukemia = test system: K-562 leukemia
EKVX NSCLC = test system: EKVX NSCLC
UACC-257 melanoma = test system: UACC-257 melanoma
HL-60(TB) leukemia = test system: HL-60(TB) leukemia
NCI-H522 lung = test system: NCI-H522 lung
HOP-92 NSCLC = test system: HOP-92 NSCLC
CCRF-CEM leukemia = test system: CCRF-CEM leukemia
OVCAR-5 ovarian = test system: OVCAR-5 ovarian
SK-MEL-2 melanoma = test system: SK-MEL-2 melanoma
SK-OV-3 ovarian = test system: SK-OV-3 ovarian
MOLT-4 leukemia = test system: MOLT-4 leukemia
LXFL 529 NSCLC = test system: LXFL 529 NSCLC
A549 NSCLC = test system: A549 NSCLC
UACC-62 melanoma = test system: UACC-62 melanoma
SF-268 CNS = test system: SF-268 CNS
IGROV1 ovarian = test system: IGROV1 ovarian
SK-MEL-5 melanoma = test system: SK-MEL-5 melanoma
HCT-15 colon = test system: HCT-15 colon
SN12C renal = test system: SN12C renal
HCT-116 colon = test system: HCT-116 colon
SK-MEL-28 melanoma = test system: SK-MEL-28 melanoma
TK-10 renal = test system: TK-10 renal
ACHN renal = test system: ACHN renal
RXF 393 renal = test system: RXF 393 renal
NCI-H23 lung = test system: NCI-H23 lung
HOP-62 NSCLC = test system: HOP-62 NSCLC
NCI-H226 lung = test system: NCI-H226 lung
M19-MEL melanoma = test system: M19-MEL melanoma
MALME-3M melanoma = test system: MALME-3M melanoma
DMS 114 small cell lung = test system: DMS 114 small cell lung
OVCAR-4 ovarian = test system: OVCAR-4 ovarian
COLO 205 colon = test system: COLO 205 colon
OVCAR-3 ovarian = test system: OVCAR-3 ovarian
KM20L2 colon = test system: KM20L2 colon
A498 renal = test system: A498 renal
SNB-75 CNS = test system: SNB-75 CNS
SF-539 CNS = test system: SF-539 CNS
DLD-1 colon = test system: DLD-1 colon

SMILES: CN=c1ssc(/N=C(\SC)N(C)C)[n+]1C
- TGI (RXF-631 renal): > 100 µM
- TGI (SR leukemia): > 100 µM
- TGI (HCC-2998 colon): > 100 µM
- TGI (XF 498 CNS): > 100 µM
- TGI (CAKI-1 renal): > 100 µM
- TGI (NCI-H460 lung): > 100 µM
- TGI (M14 melanoma): > 100 µM
- TGI (SW-620 colon): > 100 µM
- TGI (786-0 renal): > 100 µM
- TGI (U251 CNS): > 100 µM
- TGI (UO-31 renal): > 100 µM
- TGI (OVCAR-8 ovarian): > 100 µM
- TGI (SF-295 CNS): > 100 µM
- TGI (LOX IMVI melanoma): > 100 µM
- TGI (DMS 273 small cell lung): > 100 µM
- TGI (KM12 colon): > 100 µM
- TGI (SNB-19 CNS): > 100 µM
- TGI (SNB-78 CNS): > 100 µM
- TGI (HT29 colon): > 100 µM
- TGI (K-562 leukemia): > 100 µM
- TGI (EKVX NSCLC): > 100 µM
- TGI (UACC-257 melanoma): > 100 µM
- TGI (HL-60(TB) leukemia): > 100 µM
- TGI (NCI-H522 lung): > 100 µM
- TGI (HOP-92 NSCLC): > 100 µM
- TGI (CCRF-CEM leukemia): > 100 µM
- TGI (OVCAR-5 ovarian): > 100 µM
- TGI (SK-MEL-2 melanoma): > 100 µM
- TGI (SK-OV-3 ovarian): > 100 µM
- TGI (MOLT-4 leukemia): > 100 µM
- TGI (LXFL 529 NSCLC): > 100 µM
- TGI (A549 NSCLC): > 100 µM
- TGI (UACC-62 melanoma): > 100 µM
- TGI (SF-268 CNS): > 100 µM
- TGI (IGROV1 ovarian): > 100 µM
- TGI (SK-MEL-5 melanoma): > 100 µM
- TGI (HCT-15 colon): > 100 µM
- TGI (SN12C renal): > 100 µM
- TGI (HCT-116 colon): > 100 µM
- TGI (SK-MEL-28 melanoma): > 100 µM
- TGI (TK-10 renal): > 100 µM
- TGI (ACHN renal): > 100 µM
- TGI (RXF 393 renal): > 100 µM
- TGI (NCI-H23 lung): > 100 µM
- TGI (HOP-62 NSCLC): > 100 µM
- TGI (NCI-H226 lung): > 100 µM

SMILES: CC1CC[C@@]23CCC4(C)[C@@](C=CC5[C@@]6(C)CCC(=O)C(C)(C)C6CC[C@]54C)(OC2=O)[C@@H]3[C@H]1C (stereo partly specified)
- TGI (RXF-631 renal): 71.4 µM
- TGI (SR leukemia): 26.5 µM
- TGI (XF 498 CNS): 34.2 µM
- TGI (M19-MEL melanoma): 68.5 µM
- TGI (CAKI-1 renal): > 100 µM
- TGI (NCI-H460 lung): 58 µM
- TGI (M14 melanoma): > 100 µM
- TGI (SW-620 colon): > 100 µM
- TGI (786-0 renal): > 100 µM
- TGI (MALME-3M melanoma): 52 µM
- TGI (U251 CNS): 52.9 µM
- TGI (UO-31 renal): 40.2 µM
- TGI (OVCAR-8 ovarian): > 100 µM
- TGI (SF-295 CNS): 73.2 µM
- TGI (LOX IMVI melanoma): 36.3 µM
- TGI (DMS 114 small cell lung): 34.1 µM
- TGI (KM12 colon): 36.8 µM
- TGI (SNB-19 CNS): > 100 µM
- TGI (SNB-78 CNS): 67.9 µM
- TGI (HT29 colon): 51.3 µM
- TGI (K-562 leukemia): > 100 µM
- TGI (EKVX NSCLC): 82.9 µM
- TGI (UACC-257 melanoma): 52.8 µM
- TGI (HL-60(TB) leukemia): 13.3 µM
- TGI (NCI-H522 lung): 37.9 µM
- TGI (OVCAR-4 ovarian): > 100 µM
- TGI (COLO 205 colon): 27.7 µM
- TGI (HOP-92 NSCLC): 41.7 µM
- TGI (OVCAR-3 ovarian): 39.3 µM
- TGI (CCRF-CEM leukemia): 53.4 µM
- TGI (KM20L2 colon): > 100 µM
- TGI (SK-OV-3 ovarian): 80 µM
- TGI (MOLT-4 leukemia): 27.8 µM
- TGI (A498 renal): 62.5 µM
- TGI (LXFL 529 NSCLC): 74.7 µM
- TGI (A549 NSCLC): 81 µM
- TGI (UACC-62 melanoma): > 100 µM
- TGI (SF-268 CNS): > 100 µM
- TGI (IGROV1 ovarian): > 100 µM
- TGI (SK-MEL-5 melanoma): 28.5 µM
- TGI (SN12C renal): > 100 µM
- TGI (HCT-116 colon): 22.7 µM
- TGI (SNB-75 CNS): 55 µM
- TGI (SK-MEL-28 melanoma): > 100 µM
- TGI (SF-539 CNS): 86.3 µM
- TGI (TK-10 renal): 56.5 µM
- TGI (ACHN renal): 78.2 µM
- TGI (DLD-1 colon): > 100 µM
- TGI (RXF 393 renal): 41.2 µM
- TGI (NCI-H23 lung): 42 µM
- TGI (HOP-62 NSCLC): 42.6 µM
- TGI (NCI-H226 lung): 58.9 µM

SMILES: COc1cc(/C=C(\NC(=O)c2ccccc2)c2nc3[nH]c(=S)[nH]c(=O)c3[nH]2)cc(OC)c1OC
- TGI (RXF-631 renal): > 100 µM
- TGI (SR leukemia): > 100 µM
- TGI (HCC-2998 colon): > 100 µM
- TGI (XF 498 CNS): > 100 µM
- TGI (M19-MEL melanoma): > 100 µM
- TGI (CAKI-1 renal): > 100 µM
- TGI (M14 melanoma): > 100 µM
- TGI (SW-620 colon): > 100 µM
- TGI (786-0 renal): > 100 µM
- TGI (MALME-3M melanoma): > 100 µM
- TGI (U251 CNS): > 100 µM
- TGI (UO-31 renal): > 100 µM
- TGI (OVCAR-8 ovarian): > 100 µM
- TGI (SF-295 CNS): > 100 µM
- TGI (DMS 114 small cell lung): > 100 µM
- TGI (KM12 colon): > 100 µM
- TGI (SNB-19 CNS): > 100 µM
- TGI (SNB-78 CNS): > 100 µM
- TGI (HT29 colon): > 100 µM
- TGI (K-562 leukemia): > 100 µM
- TGI (EKVX NSCLC): > 100 µM
- TGI (HL-60(TB) leukemia): > 100 µM
- TGI (NCI-H522 lung): > 100 µM
- TGI (OVCAR-4 ovarian): > 100 µM
- TGI (COLO 205 colon): > 100 µM
- TGI (HOP-92 NSCLC): > 100 µM
- TGI (OVCAR-3 ovarian): > 100 µM
- TGI (CCRF-CEM leukemia): > 100 µM
- TGI (OVCAR-5 ovarian): > 100 µM
- TGI (KM20L2 colon): > 100 µM
- TGI (SK-MEL-2 melanoma): > 100 µM
- TGI (SK-OV-3 ovarian): > 100 µM
- TGI (MOLT-4 leukemia): > 100 µM
- TGI (LXFL 529 NSCLC): > 100 µM
- TGI (A549 NSCLC): > 100 µM
- TGI (UACC-62 melanoma): > 100 µM
- TGI (SF-268 CNS): > 100 µM
- TGI (IGROV1 ovarian): > 100 µM
- TGI (SK-MEL-5 melanoma): > 100 µM
- TGI (HCT-15 colon): > 100 µM
- TGI (SN12C renal): > 100 µM
- TGI (SK-MEL-28 melanoma): > 100 µM
- TGI (SF-539 CNS): > 100 µM
- TGI (TK-10 renal): > 100 µM
- TGI (ACHN renal): > 100 µM
- TGI (DLD-1 colon): > 100 µM
- TGI (RXF 393 renal): > 100 µM
- TGI (NCI-H23 lung): > 100 µM
